Converted amounts (≈) assume the structure as drawn. Read-outs that look alike come from different tables or passages of the source.
Key:
[1] = molecular target: T1, full-length beta-Catenin (Uniprot ID P35222) (Homo sapiens, UniProt P35222); experiment: Fluorescence polarization IC50 (beta-catenin / 5FAM-TCF4 10-53 competition); type: binding
T1 construct: 10 nM full-length beta-Catenin (Uniprot ID P35222)
T1 sequence (P35222 1-781): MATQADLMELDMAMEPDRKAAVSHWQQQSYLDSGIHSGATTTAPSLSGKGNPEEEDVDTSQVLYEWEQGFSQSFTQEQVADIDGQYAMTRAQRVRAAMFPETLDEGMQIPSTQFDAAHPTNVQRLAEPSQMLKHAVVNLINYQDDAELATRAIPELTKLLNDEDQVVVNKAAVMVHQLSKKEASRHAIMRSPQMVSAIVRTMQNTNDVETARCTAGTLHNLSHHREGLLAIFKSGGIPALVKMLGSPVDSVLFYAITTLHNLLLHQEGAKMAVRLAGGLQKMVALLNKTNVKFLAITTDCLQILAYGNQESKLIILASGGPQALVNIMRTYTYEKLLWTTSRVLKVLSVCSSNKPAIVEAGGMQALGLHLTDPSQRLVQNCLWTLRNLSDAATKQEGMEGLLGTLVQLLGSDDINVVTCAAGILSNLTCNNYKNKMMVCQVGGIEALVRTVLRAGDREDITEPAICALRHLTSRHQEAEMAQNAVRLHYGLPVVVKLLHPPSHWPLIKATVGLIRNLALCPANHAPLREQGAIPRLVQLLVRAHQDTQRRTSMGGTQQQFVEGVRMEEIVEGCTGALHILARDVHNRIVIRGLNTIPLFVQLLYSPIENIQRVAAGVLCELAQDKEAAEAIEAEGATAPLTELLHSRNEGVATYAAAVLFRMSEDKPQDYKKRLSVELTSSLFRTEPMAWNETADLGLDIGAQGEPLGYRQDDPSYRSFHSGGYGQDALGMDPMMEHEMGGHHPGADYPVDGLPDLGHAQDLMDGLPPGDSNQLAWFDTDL

Solubility in PBS = type: physicochemical
Summary of the method: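 PBS sample ultracentrifuged; supernatant run on HPLC vs. 50 μM peptide in DMSO standard. Solubility = (PBS peak area / DMSO peak area) × 50 uM.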

CHI Log D procedure = type: physicochemical; details: for CHI Log D: pH 7.4
[2] = molecular target: T2, beta-catenin/TCF4 engagement (Homo sapiens, UniProt P35222); experiment: Nano-BRET target engagement assay (B-cat-Halo & TCF4-Luc in HEK293 cells); type: cell-based
T2 construct: expressed in transfected cells; host or cells: HEK293
T2 sequence (P35222 1-781): T1 sequence (P35222 1-781)

[3] = fluorescence polarization, read-out: beta-Catenin FP IC50
[4] = absolute IC50, read-out: NanoBRET Abs IC50

Compound | IC50 ([1]; read-out: beta-Catenin FP IC50) [nM] | Solubility (Solubility in PBS) [µM] | chromatographic logD (CHI Log D procedure; pH 7.4, CHI Log D) | IC50 ([2]; read-out: NanoBRET Abs IC50) [nM] | IC50 [1, 3] [nM] | Solubility (Solubility in PBS; Solubility (uM)) [µM] | IC50 [2, 4] [nM] | other results
CC(=O)N1CCC[C@]12CC=CCCCC1(CCCC=CCCCOC(=O)N3CC[C@@](C(=O)N[C@@H](Cc4ccccc4)C(=O)N[C@@H](Cc4csc5ccccc45)C(=O)N[C@@H](Cc4c[nH]cn4)C(N)=O)(C3)NC(=O)[C@H](CC(N)=O)NC(=O)[C@H](Cc3ccccc3)NC(=O)[C@H](C)NC(=O)[C@H](C)NC(=O)[C@H](CC(=O)O)NC(=O)[C@H](CC(=O)O)NC1=O)NC(=O)[C@H](CC(C)(C)C)NC(=O)[C@H](CC(=O)O)NC2=O (stereo partly drawn) [I-777, Ac-PL3-Asp-Npg-B5-Asp-Asp-Ala-Ala-Phe-Asn-PyrS2-Phe-BztA-His-NH2] | 5 | 50 (≈ 96.1 µg/mL) | 2.15 | 19800 |  |  |  | inhibition at 10 µM ([2]; HEK293, @ 10 uM, read-out: NanoBRET % inh @ 10 uM): 24.5%; IC50 ([2]; read-out: NanoBRET IC50): 14400 nM
CC[C@H](C)[C@@H]1NC(=O)[C@H](CC(=O)O)NC(=O)[C@]2(CC=CCCCC3(CCCC=CCCCCCC[C@@](C)(C(=O)N[C@@H](Cc4ccsc4)C(=O)N[C@@H](Cc4csc5ccccc45)C(=O)N[C@@H](Cc4c[nH]cn4)C(N)=O)NC(=O)[C@H](CC(N)=O)NC(=O)[C@H](Cc4ccccc4)NC(=O)[C@H](C)NC(=O)[C@H](C)NC(=O)[C@H](CCC(=O)O)NC(=O)[C@H](CC(=O)O)NC3=O)NC1=O)CCCN2C(C)=O (stereo partly drawn) [I-517, Ac-PL3-Asp-Ile-B5-Asp-Glu-Ala-Ala-Phe-Asn-S8-3Thi-BztA-His-NH2] |  |  | 2.42 |  | 15 | 15 (≈ 28.3 µg/mL) | 9700 | 
CC(=O)N1CCC[C@]12CC=CCCCC1(CCCC=CCCCCCC[C@@](C)(C(=O)N[C@@H](Cc3ccccc3)C(=O)N[C@@H](Cc3csc4ccccc34)C(=O)N[C@@H](CCC(N)=O)C(N)=O)NC(=O)[C@H](CC(N)=O)NC(=O)[C@H](Cc3ccccc3)NC(=O)[C@H](C)NC(=O)[C@H](C)NC(=O)[C@H](CC(=O)O)NC(=O)[C@H](CC(=O)O)NC1=O)NC(=O)[C@H](CCC(C)C)NC(=O)[C@H](CC(=O)O)NC2=O (stereo partly drawn) [I-548, Ac-PL3-Asp-hLeu-B5-Asp-Asp-Ala-Ala-Phe-Asn-S8-Phe-BztA-Gln-NH2] |  | 50 (≈ 93.5 µg/mL) |  |  | 17 |  | 15600 | IC50 ([1]; read-out: FP EC50): 17 nM; CHI Log D (CHI Log D procedure): 2.528
CC(=O)N1CCC[C@]12CC=CCCCC1(CCCC=CCCCOC(=O)N3CC[C@@](C(=O)N[C@@H](Cc4ccsc4)C(=O)N[C@@H](Cc4csc5ccccc45)C(=O)N[C@@H](CCC(N)=O)C(N)=O)(C3)NC(=O)[C@H](CC(N)=O)NC(=O)[C@H](Cc3ccccc3)NC(=O)[C@H](C)NC(=O)[C@H](C)NC(=O)[C@H](CCC(=O)O)NC(=O)[C@H](CC(=O)O)NC1=O)NC(=O)[C@H](CC(C)(C)C)NC(=O)[C@H](CC(=O)O)NC2=O (stereo partly drawn) [I-691, Ac-PL3-Asp-Npg-B5-Asp-Glu-Ala-Ala-Phe-Asn-PyrS2-3Thi-BztA-Gln-NH2] |  | 45 (≈ 86.9 µg/mL) |  |  | 9 |  | 17000 | IC50 ([1]; read-out: FP EC50): 9 nM; CHI Log D (CHI Log D procedure): 2.068
CC(=O)N1CCC[C@]12CC=CCCCC1(CCCC=CCCCOC(=O)N3CC[C@@](C(=O)N[C@@H](Cc4ccsc4)C(=O)N[C@@H](Cc4csc5ccccc45)C(N)=O)(C3)NC(=O)[C@H](CC(N)=O)NC(=O)[C@H](Cc3ccccc3)NC(=O)[C@H](C)NC(=O)[C@H](C)NC(=O)[C@H](CCC(N)=O)NC(=O)[C@H](CC(=O)O)NC1=O)NC(=O)[C@H](CC(C)(C)C)NC(=O)[C@H](CC(=O)O)NC2=O (stereo partly drawn) [I-858, Ac-PL3-Asp-Npg-B5-Asp-Gln-Ala-Ala-Phe-Asn-PyrS2-3Thi-BztA-NH2] | 34 |  | 2.54 | > 20000 |  | 18 (≈ 32.5 µg/mL) |  | 
CC(=O)N1CCC[C@]12CC=CCCCC1(CCCC=CCCCOC(=O)N3CC[C@@](C(=O)N[C@@H](Cc4ccsc4)C(=O)N[C@@H](Cc4csc5ccccc45)C(=O)N[C@@H](CCC(N)=O)C(N)=O)(C3)NC(=O)[C@H](CC(N)=O)NC(=O)[C@H](Cc3ccccc3)NC(=O)[C@H](CCCCNC(=O)c3ccc(CN4CCN(C)CC4)cc3)NC(=O)[C@H](C)NC(=O)[C@H](CC(=O)O)NC(=O)[C@H](CC(=O)O)NC1=O)NC(=O)[C@H](CC(C)(C)C)NC(=O)[C@H](CC(=O)O)NC2=O (stereo partly drawn) [I-889, Ac-PL3-Asp-Npg-B5-Asp-Asp-Ala-[4MePipBz]Lys-Phe-Asn-PyrS2-3Thi-BztA-Gln-NH2] | 16 |  | 1.49 | > 20000 |  |  |  | solubility at 15 min (Solubility in PBS; Solubility (uM)): 41 µM (≈ 89.9 µg/mL)
COCCOCCOCCOCCOCCOCCC(=O)NCCCC[C@@H]1NC(=O)[C@H](C)NC(=O)[C@H](CC(=O)O)NC(=O)[C@H](CC(=O)O)NC(=O)C2(CCCC=CCCCOC(=O)N3CC[C@@](C(=O)N[C@@H](Cc4ccsc4)C(=O)N[C@@H](Cc4csc5ccccc45)C(=O)N[C@@H](CCC(N)=O)C(N)=O)(C3)NC(=O)[C@H](CC(N)=O)NC(=O)[C@H](Cc3ccccc3)NC1=O)CCCC=CC[C@]1(CCCN1C(C)=O)C(=O)N[C@@H](CC(=O)O)C(=O)N[C@@H](CC(C)(C)C)C(=O)N2 (stereo partly drawn) [I-895, Ac-PL3-Asp-Npg-B5-Asp-Asp-Ala-[mPEG6]Lys-Phe-Asn-PyrS2-3Thi-BztA-Gln-NH2] | 14 |  | 1.45 | > 20000 |  | 31 (≈ 70.7 µg/mL) |  | 
CC(=O)N1CCC[C@]12CC=CCCCC1(CCCC=CCCCOC(=O)N3CC[C@@](C(=O)N[C@@H](Cc4ccccc4Cl)C(=O)N[C@@H](Cc4csc5ccccc45)C(=O)N[C@@H](CO)C(N)=O)(C3)NC(=O)[C@H](CC(N)=O)NC(=O)[C@H](Cc3ccccc3)NC(=O)[C@H](C)NC(=O)[C@H](C)NC(=O)[C@H](CC(=O)O)NC(=O)[C@H](CC(=O)O)NC1=O)NC(=O)[C@H](CC1CCCCC1)NC(=O)[C@H](CC(=O)O)NC2=O (stereo partly drawn) [I-1046, Ac-PL3-Asp-Cha-B5-Asp-Asp-Ala-Ala-Phe-Asn-PyrS2-2C1F-BztA-Ser-NH2] | 5 |  | 2.4 |  |  | 37 (≈ 71.5 µg/mL) | 20500 | 
CC(=O)N1CCC[C@]12CC=CCCCC1(CCCC=CCCCOC(=O)N3CC[C@@](C(=O)N[C@@H](Cc4ccsc4)C(=O)N[C@@H](Cc4csc5ccccc45)C(N)=O)(C3)NC(=O)[C@H](CC(N)=O)NC(=O)[C@H](Cc3ccccc3)NC(=O)[C@H](C)NC(=O)[C@H](C)NC(=O)[C@H](Cc3c[nH]cn3)NC(=O)[C@H](CC(=O)O)NC1=O)NC(=O)[C@H](CC(C)(C)C)NC(=O)[C@H](CC(=O)O)NC2=O (stereo partly drawn) [I-863, Ac-PL3-Asp-Npg-B5-Asp-His-Ala-Ala-Phe-Asn-PyrS2-3Thi-BztA-NH2] | 22 | 10 (≈ 18.1 µg/mL) |  | > 20000 |  |  |  | logD (CHI Log D procedure; pH 7.4, CHI Log D): 2.28
CC(=O)N1CCC[C@]12CC=CCCCC1(CCCC=CCCCOC(=O)N3CC[C@@](C(=O)N[C@@H](Cc4ccccc4Cl)C(=O)N[C@@H](Cc4csc5ccccc45)C(=O)N[C@@H](CCC(N)=O)C(N)=O)(C3)NC(=O)[C@H]([C@@H](C)O)NC(=O)[C@H](Cc3ccccc3)NC(=O)[C@H](C)NC(=O)[C@H](C)NC(=O)[C@H](CC(=O)O)NC(=O)[C@H](CC(=O)O)NC1=O)NC(=O)[C@H](Cc1ccccc1)NC(=O)[C@H](CC(=O)O)NC2=O (stereo partly drawn) [I-1043, Ac-PL3-Asp-Phe-B5-Asp-Asp-Ala-Ala-Phe-Thr-PyrS2-2C1F-BztA-Gln-NH2] | 12 |  | 2.15 | > 20000 |  | 43 (≈ 84 µg/mL) |  | 
CC(=O)N1CCC[C@]12CC=CCCCC1(CCCC=CCCCCCC[C@@](C)(C(=O)N[C@@H](Cc3ccccc3)C(=O)N[C@@H](Cc3csc4ccccc34)C(=O)N[C@@H](CCC(N)=O)C(N)=O)NC(=O)[C@H](CC(N)=O)NC(=O)[C@H](Cc3ccccc3)NC(=O)[C@H](C)NC(=O)[C@H](C)NC(=O)[C@H](CCC(=O)O)NC(=O)[C@H](CC(=O)O)NC1=O)NC(=O)[C@H](CC(C)(C)C)NC(=O)[C@H](CC(=O)O)NC2=O (stereo partly drawn) [I-677, Ac-PL3-Asp-Npg-B5-Asp-Glu-Ala-Ala-Phe-Asn-S8-Phe-BztA-Gln-NH2] |  |  | 2.45 |  | 22 | 49 (≈ 92.3 µg/mL) | 6700 | 
COc1cccc(C[C@@H]2NC(=O)[C@H](C)NC(=O)[C@H](C)NC(=O)[C@H](CC(=O)O)NC(=O)[C@H](CC(=O)O)NC(=O)C3(CCCC=CCCCOC(=O)N4CC[C@@](C(=O)N[C@@H](Cc5ccccc5)C(=O)N[C@@H](Cc5csc6ccccc56)C(=O)N[C@@H](CCC(N)=O)C(N)=O)(C4)NC(=O)[C@H](CO)NC2=O)CCCC=CC[C@]2(CCCN2C(C)=O)C(=O)N[C@@H](CC(=O)O)C(=O)N[C@@H](CC2CCCCC2)C(=O)N3)c1 (stereo partly drawn) [I-1124, Ac-PL3-Asp-Cha-B5-Asp-Asp-Ala-Ala-3OMeF-Ser-PyrS2-Phe-BztA-Gln-NH2] | 12 |  | 2.22 |  |  | 47 (≈ 91.2 µg/mL) | > 20000 | 

Reference: patent US20240116985A1, “STAPLED PEPTIDES AND METHODS THEREOF” (priority 2020, published 2024)
